Consider one molecule from article PMC7307906, “Macrocyclic Modalities Combining Peptide Epitopes and Natural Product Fragments” (Journal of the American Chemical Society, 2020).

One assay deals with T1, human MC1R (Homo sapiens, UniProt Q01726).
T1 construct: expressed in transfected cells
The assay is described as follows: cAMP assay (LANCE) in T-Rex-293 cells expressing MC1R. The class given is cell-based. A general note: Changes in cAMP serve as a functional read-out for many G protein-coupled receptors.

The target in a further assay is hMC1−5R. The assay is described as follows: Melanocortin receptor cAMP assay, result stated for all receptors together. The class given is cell-based, human. The settings on record: one bound printed for all receptors. The text has this: Example concentration response curves for selected PepNats in MC1R, MC3R, MC4R, MC5R radioligand binding assays and MC1R, MC3R, MC4R cAMP assays. Responses were normalized to reference agonist NDP -α-MSH and presented as % effect of control, with full competition in binding defined as -100% and full agonism in cAMP assays defined as […]
binding assay. Threshold to define a compound as active was set to -30% in binding assays and 20% in cAMP assays respectively. Data are from at least three independent experiments and error bars represent ± Standard Error of the […]
% s p e c ific b in d in g o f
(1 picture or pasted object on this page, not shown here) […]
to the elution profile of the crude product . The relevant fractions containing the desired product were collected, analyzed by RP-HPLC-MS and accordingly pooled and lyophilized.
HRMS were obtained on a Thermo Scientific LTQ Fleet Orbitrap mass spectrometer coupled to an Accela HPLC-System (HPLC column: Hypersyl GOLD, 50 mm x 1 mm, particle size 1.9 μm) equipped with an electron spray ionization source (ESI). The mass detection was recorded in the range of […]
2) B) Biochemical Assays Materials and Methods
Surface Plasmon Resonance (SPR)
All SPR experiments were conducted on a Biacore T200, S200 or 8K instrument (GE Healthcare) at 20 °C using HBS-P+ as running buffer (GE Healthcare). […]

Another assay has as its target T2, human MC3R (Homo sapiens, UniProt P41968).
T2 construct: expressed in transfected cells
Description: Melanocortin receptor radioligand binding (SPA, [125I]-NDP-α-MSH displacement), MC3R. The settings on record: competitive binding, mean (± SEM) of at least three independent experiments, read-out: IC50 hMC3R binding.

T1 sequence (Q01726 whole entry): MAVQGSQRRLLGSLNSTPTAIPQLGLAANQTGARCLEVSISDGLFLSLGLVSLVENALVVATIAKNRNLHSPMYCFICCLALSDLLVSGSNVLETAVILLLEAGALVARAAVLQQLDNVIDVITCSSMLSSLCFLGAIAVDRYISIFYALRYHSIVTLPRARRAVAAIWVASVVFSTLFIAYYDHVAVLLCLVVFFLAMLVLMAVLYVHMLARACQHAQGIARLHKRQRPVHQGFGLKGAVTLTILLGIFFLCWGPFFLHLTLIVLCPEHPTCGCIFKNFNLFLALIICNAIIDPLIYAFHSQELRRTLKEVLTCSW
T2 sequence (P41968 whole entry): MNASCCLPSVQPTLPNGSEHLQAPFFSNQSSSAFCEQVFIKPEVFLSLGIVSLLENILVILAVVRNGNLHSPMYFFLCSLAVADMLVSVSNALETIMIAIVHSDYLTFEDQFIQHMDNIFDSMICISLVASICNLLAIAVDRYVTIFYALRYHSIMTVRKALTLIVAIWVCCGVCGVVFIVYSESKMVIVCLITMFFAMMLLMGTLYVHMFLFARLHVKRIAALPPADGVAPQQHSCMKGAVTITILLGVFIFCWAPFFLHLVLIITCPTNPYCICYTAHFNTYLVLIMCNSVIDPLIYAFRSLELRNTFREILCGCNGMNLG

A word on the EC50: it is the concentration needed to bring the measured effect to its halfway point. By IC50 is commonly meant the midpoint of a concentration-inhibition curve. Turning to `CN1C(=O)[C@H]2N[C@@H](c3ccc(cc3)C(=O)NCCCC[C@@H](C(=O)N[C@@H](Cc3ccc(O)cc3)C(N)=O)NC(=O)[C@H](CC(N)=O)NC(=O)[C@@H](Cc3ccccc3)NC(=O)[C@@H](Cc3ccccc3)NC(=O)[C@H](CCCNC(=N)N)NC(=O)[C@@H]1Cc1ccccc1)[C@H]1C(=O)N(c3ccccc3)C(=O)[C@H]12` [K1-minor, [II-FRffNK ]Y], the “% Effect hMC1R cAMP at 100 µM” value at human MC1R (% effect at 100 µM, compounds not reaching an upper plateau (§)) was 30%. Further, the EC50 was over 100 µM on human MC1R (cAMP assay, mean (± SEM) of at least three independent experiments, read-out: EC50 hMC1R cAMP) and over 100 µM on hMC1−5R. The IC50 on human MC3R is over 100 µM.
